# Reference: PMC9127750, “Structure-based design of CDC42 effector interaction inhibitors for the treatment of cancer” (Cell reports, 2022)
# Where “and” joins values, the source holds several entries; their conditions need not be identical. Identical values can stand only once.
# Test system: WM3248 melanoma cells, 486 antibodies
# Assay: Reverse phase protein arrays (RPPA)
# Type: cell-based, Human
# Details: 20 uM, single replicates
# Text: Pellets were snap frozen in liquid nitrogen and shipped to MD Anderson Cancer Center core RPPA facility for RPPA analysis (Table S5). Three biological replicates for each sample were generated.
# Nomenclatures on the RPPA heatmaps: name_of_antibody.species_of_antibody.status_of_antibody. V - antibody validated; C - validation of antibody in progress; Q - antibody nonspecific; E – under evaluation; antibodies raised in M - mouse, G - goat, R - rabbit, or T - rat.
compound,measurement,value
"CN(C)c1cccc(Nc2cc(-c3ccccc3)nc(C3CCNCC3)n2)c1 [ARN22089, N1,N1-dimethyl-N3-(6-phenyl-2-(piperidin-4-yl)pyrimidin-4-yl)benzene-1,3-diamine]",RPPA PYGB.R.V,1.097 and 1.103
same,RPPA PYGM.M.C,0.934 and 0.932 and 1.083
same,RPPA Patched.R.C,0.965 and 1.140 and 1.132
same,RPPA Paxillin.R.C,0.641 and 0.823 and 1.018
same,RPPA Pdcd4.R.C,0.925 and 0.993 and 1.052
same,RPPA Porin.M.V,1.104 and 0.957
same,RPPA Puma.R.C,0.983 and 0.942 and 1.107
same,RPPA Pyk2_pY402.R.C,0.954 and 1.153 and 1.099
same,RPPA RBM15.R.V,1.017 and 0.937 and 1.032
same,RPPA RIP3.R.C,0.931 and 0.981
same,RPPA RIP.R.C,0.915 and 1.063
same,RPPA RPA32.R.V,1.148 and 1.033 and 1.052
same,RPPA RPA32_pS4_S8.R.C,2.002 and 1.599 and 0.993
same,RPPA RRM1.R.C,0.824 and 0.941
same,RPPA RRM2.R.C,0.754 and 0.881 and 1.132
same,RPPA RSK1.R.V,0.828 and 0.819
same,RPPA RSK.R.C,1.012 and 0.889 and 1.017
same,RPPA Rab11.R.C,1.004 and 1.130
same,RPPA Rab25.R.V,0.958 and 1.084
same,RPPA Rad17_pS645.R.V,0.998 and 1.234 and 0.987
same,RPPA Rad23A.R.C,0.881 and 0.793 and 1.163
same,RPPA Rad50.R.V,1.028
same,RPPA Rad51.R.C,0.897 and 0.995 and 0.927
same,RPPA Raptor.R.V,0.847 and 1.006 and 1.049
same,RPPA Rb.M.Q,1.078 and 0.962 and 0.891
same,RPPA Rb_pS807_S811.R.V,0.920 and 0.719 and 1.081
same,RPPA Rheb.M.C,1.252 and 1.239
same,RPPA Rictor.R.C,0.967
same,RPPA Rictor_pT1135.R.V,1.012 and 1.102 and 1.115
same,RPPA S6.M.V,1.262 and 0.956 and 0.729
same,RPPA S6_pS235_S236.R.V,0.203 and 0.249 and 0.565
same,RPPA S6_pS240_S244.R.V,0.207 and 0.313 and 0.749
same,RPPA SCD.M.V,1.014 and 0.906 and 0.962
same,RPPA SDHA.R.V,1.002 and 1.200
same,RPPA SF2.R.V,1.008 and 0.980
same,RPPA SFRP1.R.V,1.055 and 0.981 and 0.922
same,RPPA SGK1.R.V,0.787 and 0.759 and 0.980
same,RPPA SGK3.R.V,1.047 and 1.079 and 0.942
same,RPPA SHP2.R.V,1.046 and 1.001 and 0.967
same,RPPA SHP.2_pY542.R.C,1.101
same,RPPA SIRPαR.V,1.429 and 0.758 and 0.756
same,RPPA SLC1A5.R.C,1.116 and 0.885 and 1.238
same,RPPA SOD1.M.V,0.930 and 1.026 and 0.944
same,RPPA SOD2.R.V,1.210 and 1.153 and 0.970
same,RPPA SOX7.R.V,1.129 and 1.097 and 1.010
same,RPPA STING.R.V,1.022 and 0.890 and 0.979
same,RPPA Shc_pY317.R.C,0.878 and 1.001 and 1.156
same,RPPA Slfn11.G.C,1.081 and 0.905 and 0.999
same,RPPA Smac.M.Q,1.032 and 0.944 and 0.954
same,RPPA Smad1.R.V,0.952 and 1.150 and 1.141
same,RPPA Smad3.R.V,1.122 and 1.116
same,RPPA Smad4.R.V,1.439 and 1.061 and 0.837
same,RPPA Snail.M.Q,0.766 and 0.784 and 0.712
same,RPPA Sox2.R.V,1.214 and 1.389
same,RPPA Sox17.R.V,0.937 and 0.923
same,RPPA Src.M.V,0.956 and 1.011 and 0.918
same,RPPA Src_pY416.R.V,0.994 and 1.111 and 0.997
same,RPPA Src_pY527.R.V,1.022 and 1.387 and 1.151
same,RPPA Stat1_pY701.R.V,1.097 and 1.029 and 0.986
same,RPPA Stat3.R.C,0.851 and 0.986 and 1.101
same,RPPA Stat3_pY705.R.C,1.728 and 1.194 and 0.922
same,RPPA Stat5a.R.V,0.903 and 1.373 and 1.278
same,RPPA Stathmin.1.R.V,0.916 and 0.858 and 0.997
same,RPPA Syk.M.V,0.934 and 1.057 and 0.933
same,RPPA Synaptophysin.R.C,1.153 and 0.998 and 0.965
same,RPPA TAZ.R.V,0.631 and 0.534 and 0.991
same,RPPA TEAD.R.C,0.716 and 1.191
same,RPPA TFAM.R.V,0.999 and 0.944 and 0.992
same,RPPA TFRC.R.V,0.895 and 0.844 and 1.062
same,RPPA TIGAR.R.V,1.012 and 1.022 and 1.077
same,RPPA TRAP1.M.V,0.979 and 0.864 and 0.990
same,RPPA TRIM24.R.C,1.117 and 0.958
same,RPPA TRIM25.R.C,0.754 and 0.868 and 1.058
same,RPPA TRIP13.R.V,1.019 and 0.950 and 0.966
same,RPPA Tau.M.C,1.147 and 1.195 and 0.925
same,RPPA Transglutaminase.M.V,0.881 and 1.342 and 1.747
same,RPPA level HLA.DQA1.R.V,1.062 and 1.076 and 0.920
same,RPPA level HLA.DR.DP.DQ.DX.R.C,1.376 and 1.011 and 0.963
same,RPPA level HMHA1.R.V,1.204
same,RPPA level HNRNPK.R.V,1.033 and 1.100
same,RPPA level HSP27.M.C,0.818 and 0.879 and 0.896
same,RPPA level HSP27_pS82.R.V,0.857 and 1.102 and 1.157
